In patent publication US9617517B2, “Small chemical compound which promotes induction of differentiation of stem cells into insulin-producing cells and method for inducing differentiation of stem cells into insulin-producing cells using said small chemical compound” (NATIONAL UNIVERSITY CORPORATION KUMAMOTO UNIVERSITY, priority 2011, dated 2017):

Experiments:
VMAT2KD ES cells = assay: Differentiation into insulin-expressing cells in vesicular monoamine transporter knock-down cell line; assay type: cell-based, mouse; details: VMAT2KD cells with dBu-cAMP 0.63 μM; control = normal cells without cAMP analog (FIG. 11A)
Experimental: In the Vmat2-knockdown and Drd2-knockdown assays, Expression Arrest non-silencing control shRNA (Open Biosystems, #RHS4080), Vmat2 hRNA (Open Biosystems, #RMM3981-97058457 and #RMM3981-97058458) or Drd2 hRNA (Open Biosystems, #RMM3981-9594258) lentiviral vectors were used. For virus preparation, HEK293-FT cells (Invitrogen) were seeded on a plate medium the day before transfection. After overnight culture, the cells were transfected with lentiviral vectors and ViraPower™ Lentiviral Packaging Mix (Invitrogen) using FuGENE6 Transfection Reagent (Roche) according to the manufacturer's protocol. Cells were incubated in the ES maintenance medium for 24 hours, and viral supernatants were collected. Then, SK7 cells were infected with the viral supernatants. After incubation for 24 hours, the virus-containing medium was replaced with fresh ES maintenance medium. Further 24 hours later, the infected cells were selected using […] puromycin. The surviving cells were cloned as a knockdown-cell lines.
Drd2 is known as a G protein-coupled receptor activating Gαi/o protein and having an inhibiting activity against adenyl cyclase. To identify the intracellular signal transduction phenomenon by Drd2, the effect of cAMP was examined. […] This enhancement was stronger than that obtained when dBu-cAMP was added to VMAT2KD ES cells (FIG. 10). […]

Ngn3/GFP mouse ES cells = assay: Ngn3 positive cell inducing rate; assay type: cell-based; details: TBZ 2.5 μM or dBu-cAMP 0.6 μM; addition days 9-11, 11-13 or 9-13; day 13 (FIG. 16C)
Experimental: The influence exerted on the Ngn3 positive cell inducing rate by addition of TBZ (2.5 μM) or dBu-cAMP (0.6 μM) was confirmed. FIG. 16A is a view schematically showing the addition periods of TBZ or dBu-cAMP, and the addition periods are a) on days 9 to 11 of culture, b) on days 11 to 13 of culture, and c) on days 9 to 13 of culture.
First, the compound was not added or TBZ was added on days 9 to 13 of culture (period c), and visible light photographs and fluorescence of Ngn3/GFP mouse ES cells were observed on day 13 of culture. The left one is a visible light photograph and the right one is fluorescence.
Next, the compound was not added, or TBZ or dBu-cAMP was added under the above-described conditions a), b) and c), and the proportion of GFP positive cells on day 13 of culture was checked. The ratios of the proportions of GFP positive cells and Ngn3 positive cells when the ratio in the case of no addition is 1 are shown in FIG. 16C. […] The order of intensity of the effect was a), c), b) in descending order.

`CCCC(=O)Nc1ncnc2c1ncn2[C@@H]1O[C@@H]2COP(=O)(O)O[C@H]2[C@H]1OC(=O)CCC` [Dibutyryl- cAMP, dibutyrate-cAMP] was tested. Which “increase of number of insulin-expressing cells” value (VMAT2KD ES cells) did it give?
Its value is 31.4 fold.

And the “number of GFP positive cells” value (Ngn3/GFP mouse ES cells)?
Its value is “increased in all conditions”.
